Values joined by “and” are separate entries in the source; they are usually repeats but may differ in a detail not shown here. Equal entries are not always repeated. Where a SMILES comes first, the peptide text is derived from it. [ ]: non-standard residue; d: D form. The star is where a group is joined. Nle = CCCC[C@H](N)C(=O)O; Hexanoyl = CCCCCC(=O)*; Ahx = NCCCCCC(=O)O
Assays:
[1] = tested on: hippocampal neurons transfected with shMet; assay: Spinogenesis after c-Met knock-down with shRNA; type: cell-based, rat; conditions: HGF 10 ng/ml, 48 hours
Text: Neurons were transfected with mRFP-β-actin on day in vitro 6 (DIV6) using LipofectAMINE™ 2000 (Invitrogen) according to the manufacturer's protocol. This protocol yielded the desired 3-5% transfection efficiency thus enabling the visualization of individual neurons. Higher efficiencies obscured the dendritic arbor of individual neurons. Expression of fluorescently tagged actin allowed clear visualization of dendritic spines, as dendritic spines are enriched in actin. On DIV7 the cells were treated with vehicle (H20) or peptides (as described in the text) added to media. On DIV12 the neurons were fixed (4% paraformaldehyde, 3% sucrose, 60 mM PIPES, 25 mM HEPES, 5 mM EGTA, 1 mM MgCl2, pH 7.4) for 20 min at room temperature and mounted. Slides were dried for at least 20 hours at 4° C. and fluorescent images were obtained with Slidebook 4.2 Digital Microscopy Software driving an Olympus IX81 inverted confocal microscope with a 60× oil immersion lens, NA 1.4 and resolution 0.280 μm Dendritic spine density was measured on primary and secondary dendrites at a distance of at least 150 μm from the soma. Five 50 μm long segments of dendrite from at least 10 neurons per data point were analyzed for each data point reported. Each experiment was repeated at least three times using independent culture preparations. Dendrite length was determined using the National Institutes of Health's Image J 1.41o program (NIH, Bethesda, Md.) and the neurite tracing program Neuron J (Meijering, Jacob et al. 2004) Spines were manually counted.
A target sequence for c-Met was designed using RNAi central design program (see the website located at cancan.cshl.edu/). […]. The shRNA was transfected into cells using the lipofectamine method described above. Verification of receptor knockdown was done by creating a c-Met-6-Myc tagged gene product using the Gateway cloning system (Invitrogen). The Met protein coding sequence was cloned from rat whole brain cDNA using primers obtained from Integrated DNA Technologies, Inc. The amplified product was gel purified and a band corresponding to […] band excised and cloned into a PCAGGS-6-Myc destination vector (Gateway).
To irrefutably confirm that the AngIV analogues act via the HGF/c-met system an shRNA for c-Met was employed to knock-down the receptor. Dissociated hippocampal neurons were transfected with mRFP-β-actin and shMet RNA and receptor knock-down was allowed to take place for 48 hours prior to stimulating with 0.5 μg (per well) HGF (10 ng/ml), Dihexa or Nle1-AngIV (both at 10^−12M). Longer exposure appeared to be detrimental or toxic to the neurons. Effective c-Met receptor knock-down was verified by transfecting human embryonic kidney (HEK) cells with (0.1 μg) 6-Myc-tagged c-Met, (0.1 μg) shMet or mRFP-β-actin alone. Successful knockdown was confirmed by immunoblotting for Myc tagged c-met using an anti-Myc antibody (FIG. 19).

[2] = tested on: CA1 hippocampal neurons; assay: Spinogenesis in organotypic hippocampal slice cultures; type: cell-based, rat
Protocol: (§1) Hippocampi from P4 Sprague Dawley rats were cultured as previously described (Wayman, Impey et al. 2006). Briefly, 400 μm slices were cultured on (Milipore, Billerica, Mass.) for 3 days after which they were biolistically transfected with tomato fluorescent protein (TIT) using a Helios Gen Gun (BioRad, Hercules, Calif.), according to the manufacturer's protocol, to visualize dendritic arbors. Following a 24 hour recovery period slices were stimulated with vehicle (H2O), […] Nle1-AngIV or Dihexa for 2 days. Slices were fixed and mounted. Hippocampal CA1 neuronal processes were imaged and measured as described above.
as §1, with “(TFP)” for “(TIT)”, “Gene” for “Gen”, “with” for “with vehicle (H2O),”

[3] = neurons transfected with mRFP-β-actin alone, Dihexa or Nle1-AngIV 10^−12M
[4] = neurons transfected with mRFP-β-actin and shMet, Dihexa or Nle1-AngIV 10^−12 M

Row | Compound | Mean spine numbers per 50 μm dendrite length [1, 3] | Mean spine numbers per 50 μm dendrite length [1, 4] | Spines per 50 μm dendrite length, CA1 neurons ([2]; 10^−12 M, 2 days) | Spines per 50 μm dendrite length, CA1 neurons ([2]; HGF 10 ng/ml, 48 hours)
1 | CCCCCC(=O)N[C@@H](Cc1ccc(O)cc1)C(=O)N[C@H](C(=O)NCCCCCC(N)=O)[C@@H](C)CC [Dihexa, N-hexanoic-Tyr-Ile-(6)-aminohexanoic amide] (Hexanoyl-Tyr-Ile-[Ahx]-NH2) | 21.8 spines per 50 μm dendrite leng | 12.0 spines per 50 μm dendrite leng | 11 spines per 50 μm dendrite length and 15.0 spines per 50 μm dendrite length | –
2 | CCCC[C@H](N)C(=O)N[C@@H](Cc1ccc(O)cc1)C(=O)N[C@H](C(=O)N[C@@H](Cc1c[nH]cn1)C(=O)N1CCC[C@H]1C(=O)N[C@@H](Cc1ccccc1)C(=O)O)[C@@H](C)CC [Nle1-AngIV, reference compound] (H-[Nle]YIHPF-OH; N-terminus and C-terminus assumed) | 20.0 spines per 50 μm dendrite leng | 12.1 spines per 50 μm dendrite leng | 11 spines per 50 μm dendrite length | –
3 | HGF: Hepatocyte growth factor, recombinant, purchased from R&D Systems | 20.6 spines per 50 μm dendrite leng | 12.4 spines per 50 μm dendrite leng | – | 18.5 spines per 50 μm dendrite length

Source: patent publication US20140094413A1, “HEPATOCYTE GROWTH FACTOR (HGF) MIMICS AS THERAPEUTIC AGENTS” (WASHINGTON STATE UNIVERSITY, priority 2012, published 2014)
